Active and inactive are the calls of the source. The rule behind the calls is not given here.
Legend:
TK-10 = test: Growth inhibition of human TK10 cells incubated for 48 hrs by sulforhodamine B assay; type: functional; conditions: TK-10, 48 h
SR [1] = test: Growth inhibition of human SR cells at 10^-5 M incubated for 48 hrs by sulforhodamine B assay relative to control; type: functional; conditions: read-out: GI
EKVX = test: Growth inhibition of human EKVX cells incubated for 48 hrs by sulforhodamine B assay; type: functional
OVCAR-8 = test: Growth inhibition of human OVCAR8 cells incubated for 48 hrs by sulforhodamine B assay; type: functional; conditions: OVCAR-8, 48 h
SK-MEL-5 = test: Growth inhibition of human SK-MEL-5 cells incubated for 48 hrs by sulforhodamine B assay; type: functional; conditions: SK-MEL-5, 48 h
CAKI-1 = test: Growth inhibition of human Caki1 cells incubated for 48 hrs by sulforhodamine B assay; type: functional; conditions: CAKI-1, 48 h
SK-OV-3 = test: Growth inhibition of human SKOV3 cells incubated for 48 hrs by sulforhodamine B assay; type: functional; conditions: SK-OV-3, 48 h
MCF7 = test: Growth inhibition of human MCF7 cells incubated for 48 hrs by sulforhodamine B assay; type: functional; conditions: MCF7, 48 h
OVCAR-5 = test: Growth inhibition of human OVCAR5 cells at 10^-5 M incubated for 48 hrs by sulforhodamine B assay relative to control; type: functional; conditions: OVCAR-5, 48 h, read-out: GI
KM12 = test: Growth inhibition of human KM12 cells incubated for 48 hrs by sulforhodamine B assay; type: functional; conditions: KM12, 48 h
Hs-578T = test: Growth inhibition of human Hs578T cells incubated for 48 hrs by sulforhodamine B assay; type: functional
NCI-H322M = test: Growth inhibition of human NCI-H322M cells incubated for 48 hrs by sulforhodamine B assay; type: functional
UACC-62 = test: Growth inhibition of human UACC62 cells incubated for 48 hrs by sulforhodamine B assay; type: functional; conditions: UACC-62, 48 h
SK-MEL-28 = test: Growth inhibition of human SK-MEL-28 cells incubated for 48 hrs by sulforhodamine B assay; type: functional; conditions: SK-MEL-28, 48 h
HOP-62 = test: Growth inhibition of human HOP62 cells incubated for 48 hrs by sulforhodamine B assay; type: functional; conditions: HOP-62, 48 h
OVCAR-4 = test: Growth inhibition of human OVCAR4 cells incubated for 48 hrs by sulforhodamine B assay; type: functional; conditions: OVCAR-4, 48 h
HCT-15 = test: Growth inhibition of human HCT15 cells incubated for 48 hrs by sulforhodamine B assay; type: functional; conditions: HCT-15, 48 h
[2] = target: T1, Dihydrofolate reductase (Homo sapiens) (UniProt P00374); test: Binding affinity to human dihydrofolate reductase at 5 uM assessed as decrease in absorption band by UV-visible spectroscopic analysis
T1 sequence (whole entry): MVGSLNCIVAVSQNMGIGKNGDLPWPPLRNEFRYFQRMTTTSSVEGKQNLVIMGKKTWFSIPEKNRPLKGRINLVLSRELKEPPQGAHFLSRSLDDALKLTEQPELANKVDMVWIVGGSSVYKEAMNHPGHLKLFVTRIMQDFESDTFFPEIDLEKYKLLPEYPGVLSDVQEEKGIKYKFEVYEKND

HOP-92 = test: Growth inhibition of human HOP92 cells incubated for 48 hrs by sulforhodamine B assay; type: functional; conditions: HOP-92, 48 h
SR [3] = test: Growth inhibition of human SR cells incubated for 48 hrs by sulforhodamine B assay; type: functional
NCI-H226 = test: Growth inhibition of human NCI-H226 cells incubated for 48 hrs by sulforhodamine B assay; type: functional; conditions: NCI-H226, 48 h
COLO 205 = test: Growth inhibition of human COLO205 cells incubated for 48 hrs by sulforhodamine B assay; type: functional; conditions: COLO 205, 48 h
Malme-3M = test: Growth inhibition of human MALME-3M cells incubated for 48 hrs by sulforhodamine B assay; type: functional
K562 = test: Growth inhibition of human K562 cells incubated for 48 hrs by sulforhodamine B assay; type: functional; conditions: K562, 48 h
U-251 = test: Growth inhibition of human U251 cells incubated for 48 hrs by sulforhodamine B assay; type: functional; conditions: U-251, 48 h
C6 [4] = test: Induction of morphological changes in rat C6 cells assessed as increase in total length of processes measured after 24 hrs by inverted microscopy analysis relative to control; type: functional
PC-3 = test: Growth inhibition of human PC3 cells incubated for 48 hrs by sulforhodamine B assay; type: functional; conditions: PC-3, 48 h
MOLT-4 = test: Growth inhibition of human MOLT4 cells at 10^-5 M incubated for 48 hrs by sulforhodamine B assay relative to control; type: functional; conditions: MOLT-4, 48 h, read-out: GI
T47D = test: Growth inhibition of human T47D cells incubated for 48 hrs by sulforhodamine B assay; type: functional
SF-295 = test: Growth inhibition of human SF295 cells incubated for 48 hrs by sulforhodamine B assay; type: functional; conditions: SF-295, 48 h
C6 [5] = test: Cell cycle arrest in rat C6 cells assessed as cell population at G0/G1 phase measured after 24 hrs by propidium iodide staining based flow cytometry analysis; type: functional
[6] = read-out: pLC50 (the source's name) (converted)
[7] = read-out: LC50 (the source's name)

## O=C(OC[C@@H]1CO1)c1cccc2c(=O)c3ccccc3[nH]c12
TK-10
  GI50: 2.34 µM
TK-10; [6]
  CC50: > 100 µM
TK-10; read-out: pTGI (converted)
  TGI: 6.76 µM
SR [1]
  inhibition of growth at 10 µM: 90%
EKVX
  GI50: 2.57 µM
EKVX; [6]
  CC50: > 100 µM
EKVX; read-out: pTGI (converted)
  TGI: 6.46 µM
OVCAR-8
  GI50: 1.26 µM
OVCAR-8; [6]
  CC50: 41.7 µM
OVCAR-8; read-out: pTGI (converted)
  TGI: 5.37 µM
SK-MEL-5
  GI50: 1.51 µM
SK-MEL-5; [6]
  CC50: 5.5 µM
SK-MEL-5; read-out: pTGI (converted)
  TGI: 2.88 µM
CAKI-1
  GI50: 1.82 µM
CAKI-1; [6]
  CC50: > 100 µM
CAKI-1; read-out: pTGI (converted)
  TGI: 8.32 µM
SK-OV-3
  GI50: 2.63 µM
SK-OV-3; [6]
  CC50: > 100 µM
SK-OV-3; read-out: pTGI (converted)
  TGI: 7.41 µM
MCF7; read-out: GI50
  GI50: 0.38 µM
MCF7; [7]
  CC50: > 100 µM
MCF7; read-out: pGI50 (converted)
  GI50: 0.389 µM
MCF7; [6]
  CC50: > 100 µM
MCF7; read-out: pTGI (converted)
  TGI: 2.95 µM
OVCAR-5
  inhibition of growth at 10 µM: 100%
KM12
  GI50: 2.19 µM
KM12; [6]
  CC50: > 100 µM
KM12; read-out: pTGI (converted)
  TGI: 7.08 µM
Hs-578T
  GI50: 2.04 µM
Hs-578T; [6]
  CC50: > 100 µM
Hs-578T; read-out: pTGI (converted)
  TGI: 5.89 µM
NCI-H322M
  GI50: 2.19 µM
NCI-H322M; [6]
  CC50: > 100 µM
NCI-H322M; read-out: pTGI (converted)
  TGI: 5.89 µM
UACC-62
  GI50: 1.58 µM
UACC-62; [6]
  CC50: 6.03 µM
UACC-62; read-out: pTGI (converted)
  TGI: 3.09 µM
SK-MEL-28
  GI50: 2.4 µM
SK-MEL-28; [6]
  CC50: > 100 µM
SK-MEL-28; read-out: pTGI (converted)
  TGI: 5.75 µM
HOP-62
  GI50: 2.14 µM
HOP-62; [6]
  CC50: > 100 µM
HOP-62; read-out: pTGI (converted)
  TGI: 5.89 µM
OVCAR-4
  GI50: 2.4 µM
OVCAR-4; [6]
  CC50: > 100 µM
OVCAR-4; read-out: pTGI (converted)
  TGI: 7.94 µM
HCT-15
  GI50: 1.66 µM
HCT-15; [6]
  CC50: > 100 µM
HCT-15; read-out: pTGI (converted)
  TGI: 5.25 µM
[2]
  Activity: Active
HOP-92
  GI50: 2.04 µM
HOP-92; [6]
  CC50: > 100 µM
HOP-92; read-out: pTGI (converted)
  TGI: 5.25 µM
SR [3]; read-out: GI50
  GI50: 0.3 µM
SR [3]; [7]
  CC50: > 100 µM
SR [3]; read-out: pGI50 (converted)
  GI50: 0.302 µM
SR [3]; [6]
  CC50: > 100 µM
SR [3]; read-out: pTGI (converted)
  TGI: 4.37 µM
NCI-H226
  GI50: 1.58 µM
NCI-H226; read-out: pTGI (converted)
  TGI: 3.47 µM
COLO 205
  GI50: 1.48 µM
COLO 205; [6]
  CC50: 33.9 µM
COLO 205; read-out: pTGI (converted)
  TGI: 4.17 µM
Malme-3M
  GI50: 1.66 µM
Malme-3M; [6]
  CC50: 6.17 µM
Malme-3M; read-out: pTGI (converted)
  TGI: 3.16 µM
K562
  GI50: 2.19 µM
K562; [6]
  CC50: > 100 µM
K562; read-out: pTGI
  TGI: > 100 µM
U-251
  GI50: 1.82 µM
U-251; [6]
  CC50: 50.1 µM
U-251; read-out: pTGI (converted)
  TGI: 7.24 µM
C6 [4]
  Activity: 85.53%
PC-3
  GI50: 2.04 µM
PC-3; [6]
  CC50: > 100 µM
PC-3; read-out: pTGI (converted)
  TGI: 8.32 µM
MOLT-4
  inhibition of growth at 10 µM: 99%
T47D
  GI50: 2.51 µM
T47D; [6]
  CC50: > 100 µM
T47D; read-out: pTGI (converted)
  TGI: 8.32 µM
SF-295
  GI50: 2.88 µM
SF-295; [6]
  CC50: > 100 µM
SF-295; read-out: pTGI (converted)
  TGI: 9.55 µM
C6 [5]
  Activity: inactive

From ChEMBL document CHEMBL4359904, “Structural tuning of acridones for developing anticancer agents targeting dihydrofolate reductase” (Bioorg Med Chem Lett, 2019)
